Results from US8759504B2, “Cholinergic/serotoninergic receptor and uses thereof” (AbbVie Inc., priority 2007, dated 2014).
Where two headings read alike, the source gives them in different places.

Experiments:
Chimera 2 [1] = molecular target: T1, Chimera 2 (Homo sapiens, UniProt P36544, M226I/T225V); assay: Membrane potential imaging (FLIPR-FMP) in HEK-293 cells; format: cell-based; design: expressed in transfected cells
Chimera 1 = Chimera 1 (Homo sapiens, UniProt P36544, M226I/T225V); assay: as above; format: cell-based; design: expressed in transfected cells
Chimera 1, sequence (P36544 with tags, fused parts or gaps T225V/M226I): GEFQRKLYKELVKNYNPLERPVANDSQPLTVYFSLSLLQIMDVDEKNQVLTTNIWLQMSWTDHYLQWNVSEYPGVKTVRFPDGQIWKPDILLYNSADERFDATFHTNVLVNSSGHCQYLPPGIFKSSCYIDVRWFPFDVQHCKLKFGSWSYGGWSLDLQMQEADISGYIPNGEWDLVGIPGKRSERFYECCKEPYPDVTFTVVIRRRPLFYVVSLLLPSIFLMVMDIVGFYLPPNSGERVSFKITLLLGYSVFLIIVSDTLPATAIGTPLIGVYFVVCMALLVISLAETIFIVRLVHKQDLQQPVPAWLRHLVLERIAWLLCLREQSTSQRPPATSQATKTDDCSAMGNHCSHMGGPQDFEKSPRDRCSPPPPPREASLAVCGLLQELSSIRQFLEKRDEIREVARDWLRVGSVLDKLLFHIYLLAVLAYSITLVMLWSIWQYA

Chimera 2 [2] = molecular target: T1, Chimera 2; assay: Two electrode voltage clamp in Xenopus oocytes (POETs), agonist and modulator responses; format: cell-based; design: expressed in transfected cells; host or cells: Xenopus laevis oocytes (transient, A2); conditions: Xenopus oocytes, data not shown
Chimera 2 [3] = molecular target: T1, Chimera 2; assay: [3H]A-585539 radioligand binding, HEK-293 membranes/homogenates; design: expressed in transfected cells; conditions: increasing concentrations
[4] = molecular target: T2, rat brain α7* nicotinic acetylcholine receptors (Rattus norvegicus, UniProt Q05941); assay: [3H]A-585539 radioligand binding, rat brain homogenates
T2 construct: expressed both as a native (rat cortex) or α7/5-HT3 chimeric receptor; from tissue; host or cells: rat brain / rat cortex homogenates
T2 sequence (Q05941 23-502): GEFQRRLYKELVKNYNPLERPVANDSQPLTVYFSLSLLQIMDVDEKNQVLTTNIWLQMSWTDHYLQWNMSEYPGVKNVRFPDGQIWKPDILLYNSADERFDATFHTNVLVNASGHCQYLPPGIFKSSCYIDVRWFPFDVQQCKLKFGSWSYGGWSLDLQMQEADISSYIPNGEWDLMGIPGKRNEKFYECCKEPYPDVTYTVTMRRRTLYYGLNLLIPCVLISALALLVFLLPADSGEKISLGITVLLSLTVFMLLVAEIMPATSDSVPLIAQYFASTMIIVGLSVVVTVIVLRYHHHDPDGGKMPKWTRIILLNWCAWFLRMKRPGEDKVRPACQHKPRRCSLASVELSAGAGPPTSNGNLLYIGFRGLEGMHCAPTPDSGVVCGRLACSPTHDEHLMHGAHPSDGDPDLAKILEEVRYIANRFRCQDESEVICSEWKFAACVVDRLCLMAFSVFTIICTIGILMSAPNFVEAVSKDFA

[5] = HEK293, read-out: Maximum efficacy (mean±S.E.M.), membrane potential imaging, HEK-293 cells
[6] = read-out: Agonist potency, membrane potential imaging: EC50 (95% C.I.), HEK-293 cells
[7] = HEK293, read-out: Agonist maximum efficacy, control (no modulator)
[8] = HEK293, read-out: Agonist maximum efficacy, in the presence of 10 μM genistein
[9] = HEK293, read-out: Agonist maximum efficacy, in the presence of 1 mM 5-HI
[10] = read-out: Agonist concentration-response EC50, control (no modulator)
[11] = read-out: Agonist concentration-response EC50, in the presence of 10 μM genistein
[12] = read-out: Agonist concentration-response EC50, in the presence of 1 mM 5-HI

T1 sequence (P36544 with tags, fused parts or gaps T225V/M226I): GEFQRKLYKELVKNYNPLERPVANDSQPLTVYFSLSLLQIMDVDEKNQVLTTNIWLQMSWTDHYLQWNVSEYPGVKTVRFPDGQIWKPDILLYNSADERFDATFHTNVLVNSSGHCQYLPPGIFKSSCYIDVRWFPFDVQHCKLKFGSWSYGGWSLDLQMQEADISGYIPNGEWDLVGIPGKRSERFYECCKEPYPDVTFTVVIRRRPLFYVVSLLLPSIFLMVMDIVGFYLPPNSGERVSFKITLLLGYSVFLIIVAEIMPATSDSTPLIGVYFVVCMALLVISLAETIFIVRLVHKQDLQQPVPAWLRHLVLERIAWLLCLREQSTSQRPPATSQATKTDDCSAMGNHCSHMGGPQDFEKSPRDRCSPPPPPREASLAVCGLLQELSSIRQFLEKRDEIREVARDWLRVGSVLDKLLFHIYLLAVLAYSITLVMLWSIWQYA

## c1ccc(-c2nnc(N3CCN4CCC3CC4)o2)cc1 [NS6784, 2-(1,4-diazabicyclo[3.2.2]nonan-4-yl)-5-phenyl-1,3,4-oxadiazole]
Chimera 2 [1]; [5]
  Emax: 107 ± 5%
Chimera 2 [1]; HEK-293 cells
  FLIPR-FMP pEC50 ± SEM: 7.1 ± 0.04
Chimera 2 [1]; [6]
  EC50: 72 nM
Chimera 1; [5]
  Emax: 100%
Chimera 1; HEK-293 cells
  FLIPR-FMP pEC50 ± SEM: 6.8 ± 0.10
Chimera 1; [6]
  EC50: 133 nM

## O=C(N[C@H]1CN2CCC1CC2)c1ccc(Cl)cc1 [PNU-282987]
Chimera 2 [1]; [7]
  Emax: 100 ± 0.01%
Chimera 2 [1]; [8]
  Emax: 207 ± 21%
Chimera 2 [1]; [9]
  Emax: 156 ± 4%
Chimera 2 [1]; [5]
  Emax: 99 ± 2%
Chimera 2 [1]; HEK-293 cells
  FLIPR-FMP pEC50 ± SEM: 7.0 ± 0.04
Chimera 2 [1]; [10]
  EC50: 75 nM
Chimera 2 [1]; [11]
  EC50: 72 nM
Chimera 2 [1]; [12]
  EC50: 37 nM
Chimera 2 [1]; [6]
  EC50: 53 nM
Chimera 1; [7]
  Emax: 98 ± 2%
Chimera 1; [8]
  Emax: 87 ± 3%
Chimera 1; [9]
  Emax: 157 ± 13%
Chimera 1; [5]
  Emax: 107 ± 9%
Chimera 1; HEK-293 cells
  FLIPR-FMP pEC50 ± SEM: 6.8 ± 0.07
Chimera 1; [10]
  EC50: 343 nM
Chimera 1; [11]
  EC50: 527 nM
Chimera 1; [12]
  EC50: 145 nM
Chimera 1; [6]
  EC50: 204 nM

## Br.CO[C@H]1CC=C2CCN3CCC4=C(CC(=O)OC4)[C@]23C1 [dihydro-β-erythroidine hydrobromide]
Chimera 2 [2]
  Effect on the inward current evoked by NS-1738 alone: inhibited the inward current observed during the NS-1738 exposure

## CCN1C[C@]2(COC(=O)c3ccccc3N3C(=O)C[C@H](C)C3=O)CC[C@H](OC)[C@@]34[C@@H]5C[C@H]6[C@H](OC)[C@@H]5[C@](O)(C[C@@H]6OC)[C@@](O)([C@@H](OC)[C@H]23)[C@@H]14 [methyllycaconitine]
Chimera 2 [3]
  Competition / displacement of [3H]A-585539 binding: competed with the binding
[4]
  Competition / displacement of [3H]A-585539 binding: competed with the binding
